# Test results as given in patent US12428626B2 (priority 2018, dated 2025).
# Residues, ends and D or L forms follow the SMILES beside them. *: point of attachment. Cbz = O=C(OCc1ccccc1)*
# System: WT MYXV
# Type: cell-based, myxoma virus
molecule,measurement,value
"CC(C)C[C@@H](C=O)NC(=O)[C@H](CC(C)C)NC(=O)[C@H](CC(C)C)NC(=O)OCc1ccccc1 [MG132, Z-Leu-Leu-Leu-al] (Cbz-Leu-Leu-Leu-aldehyde)",improved infection in SAMD9-null cells,did not affect improved infection
cytosine beta-D-arabinofuranoside [Cytosine arabinoside],luciferase activity emitted from infection in both cell lines,did not affect luciferase activity
Actinomycin D,elevated luciferase activity resulting from infecting SAMD9-null cells,did not eliminate the elevated luciferase activity
same,overall luciferase activity compared with untreated corresponding infection,did reduce the overall luciferase activity
